In US7504517B2, “Kv1.5 potassium channel inhibitors” (Wyeth, priority 2006, dated 2009):

Each compound was assayed against T1, Kv1.5 (Homo sapiens, UniProt P22460) (assay: Kv1.5 Patch Clamp EP). Conditions: 1.0 μM, single point; whole cell patch clamp, Kv1.5 stably over expressed in HEK or LTK- cells.
T1 construct: expressed in transfected cells; host or cells: HEK or LTK- cells
Type: cell-based
Method: The external solution is standard Tyrodes solution. […] Inhibition was measured at the end of the 1 second pulses and expressed relative to controls. Initial Kv1.5 inhibition is estimated by single point determinations done at 1 μM.

T1 sequence (P22460 whole entry): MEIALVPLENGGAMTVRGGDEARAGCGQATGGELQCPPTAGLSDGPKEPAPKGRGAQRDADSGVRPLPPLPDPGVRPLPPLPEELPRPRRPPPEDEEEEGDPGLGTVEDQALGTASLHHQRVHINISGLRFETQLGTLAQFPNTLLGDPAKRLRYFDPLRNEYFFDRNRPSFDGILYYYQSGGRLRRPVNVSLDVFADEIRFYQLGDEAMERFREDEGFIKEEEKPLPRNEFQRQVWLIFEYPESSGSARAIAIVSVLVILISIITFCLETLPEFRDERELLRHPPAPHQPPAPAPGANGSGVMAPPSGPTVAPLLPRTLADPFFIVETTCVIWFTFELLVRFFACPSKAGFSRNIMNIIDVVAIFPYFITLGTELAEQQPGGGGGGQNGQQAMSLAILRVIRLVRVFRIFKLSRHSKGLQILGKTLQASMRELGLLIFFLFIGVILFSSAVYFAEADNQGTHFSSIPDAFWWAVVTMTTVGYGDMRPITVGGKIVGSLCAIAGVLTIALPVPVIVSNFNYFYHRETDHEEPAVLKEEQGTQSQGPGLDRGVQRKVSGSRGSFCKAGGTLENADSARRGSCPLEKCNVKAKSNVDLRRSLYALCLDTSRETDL

Compound	inhibition at 1 µM	Kv1.5% inhibition @ 1.0 μM
COc1ccc(CCN2C(=O)N(NS(C)(=O)=O)CC2c2ccc(OC)c(OC)c2)cc1 (centres unmarked) [Compound 158, N-{4-(3,4-dimethoxyphenyl)-3-[2-(4-methoxyphenyl)ethyl]-2-oxoimidazolidin-1-yl}methanesulfonamide]	10%	–
COc1ccc(CCN2C(=O)N(NS(=O)(=O)CC(=O)NCC3CC3)C[C@H]2c2ccc(OC)cc2)cc1 [Compound 136, N-(cyclopropylmethyl)-2-({(4R)-4-(4-methoxyphenyl)-3-[2-(4-methoxyphenyl)ethyl]-2-oxoimidazolidin-1-yl}sulfamoyl)acetamide]	44%	–
COc1ccc(CCN2C(=O)N(NCc3ccncc3)CC2c2ccc(C(C)(C)C)cc2)cc1 (centres unmarked) [Compound 95, 1-[(Pyridin-4-ylmethyl)amino]-3-[2-(4-methoxyphenyl)ethyl]-4-(4-(tert-butyl)phenyl)-2-imidazolidinone]	43%	–
COc1ccc(CCN2C(=O)N(NS(=O)(=O)CS(C)(=O)=O)CC2c2ccc(OC)cc2)cc1 (centres unmarked) [Compound 153, N-{4-(4-methoxyphenyl)-3-[2-(4-methoxyphenyl)ethyl]-2-oxoimidazolidin-1-yl}-1-(methylsulfonyl)methanesulfonamide]	12%	–
COc1ccc(CCN2C(=O)N(NS(=O)(=O)CC#N)CC2c2ccc(OC)cc2)cc1 (centres unmarked) [Compound 41, 1-(Cyanomethylsulfonylamino)-3-[2-(4-methoxyphenyl)ethyl]-4-[(4-methoxy)-phenyl]-2-imidazolidinone]	42%	–
COc1ccc(CCN2C(=O)N(N)CC2c2ccc(C(C)(C)C)cc2)cc1 (centres unmarked) [Compound 2, 1-Amino-4-[4-(tert-butyl)phenyl]-3-[2-(4-methoxyphenyl)ethyl]-2-imidazolidinone]	46%	–
COc1ccc(CCN2C(=O)N(NS(=O)(=O)c3cccnc3)CC2c2ccc(OC)cc2)cc1 (centres unmarked) [Compound 62, 1-[(Pyridin-3-yl)sulfonylamino]-3-[2-(4-methoxyphenyl)ethyl]-4-(4-methoxyphenyl)-2-imidazolidinone]	26%	–
COc1ccc(C2CN(NS(C)(=O)=O)C(=O)N2CCc2ccc(OC(F)(F)F)cc2)cc1 (centres unmarked) [Compound 152, N-[4-(4-methoxyphenyl)-2-oxo-3-{2-[4-(trifluoromethoxy)phenyl]ethyl}imidazolidin-1-yl]methanesulfonamide]	16%	–
CC(C)(C)c1ccc(C2CN(NS(C)(=O)=O)C(=O)N2CCc2ccc(OCCN3CCOCC3)cc2)cc1 (centres unmarked) [Compound 169, N-[4-(4-tert-butylphenyl)-3-{2-[4-(2-morpholin-4-ylethoxy)phenyl]ethyl}-2-oxoimidazolidin-1-yl]methanesulfonamide]	16%	–
COc1ccc(CCN2C(=O)N(NCc3nccn3C)CC2c2ccc(C)c(C)c2)cc1 (centres unmarked) [Compound 138, 4-(3,4-dimethylphenyl)-3-[2-(4-methoxyphenyl)ethyl]-1-{[(1-methyl-1H-imidazol-2-yl)methyl]amino}imidazolidin-2-one]	7%	–
COc1ccc(CCN2C(=O)N(NS(=O)(=O)CC(=O)O)CC2c2ccc(C3CC3)cc2)cc1 (centres unmarked) [Compound 174, [[[4-(4-cyclopropylphenyl)-3-[2-(4-methoxyphenyl)ethyl]-2-oxo-imidazolidin-1-yl]amino]sulfonyl]acetic acid]	9%	–
COc1ccc(CCN2C(=O)N(NS(C)(=O)=O)CC2c2ccc(C(F)(F)F)cc2)cc1 (centres unmarked) [Compound 22, 1-(Methylsulfonylamino)-3-[2-(4-methoxyphenyl)ethyl]-4-(4-trifluoromethyl-phenyl)-2-imidazolidinone]	30%	–
COc1ccc(CCN2C(=O)N(NS(C)(=O)=O)CC2c2ccc(OC(C)C)cc2)cc1 (centres unmarked) [Compound 14, 1-(Methylsulfonylamino)-3-[2-(4-methoxyphenyl)ethyl]-4-[(4-isopropyloxy)-phenyl]-2-imidazolidinone]	–	28%
COc1ccc(CCN2C(=O)N(N3CCNCC3)CC2c2ccc(C(C)(C)C)cc2)cc1 (centres unmarked) [Compound 112, 4-(4-tert-butylphenyl)-3-[2-(4-methoxyphenyl)ethyl]-1-piperazin-1-ylimidazolidin-2-one]	8%	–
